# In patent US20090069319A1, “IMIDAZOPYRIDINE ANALOGS AND THEIR USE AS AGONISTS OF THE WNT-BETA-CATENIN CELLULAR MESSAGING SYSTEM” (Wyeth, priority 2007, published 2009):
# Assay: Functional Dkk1-LRP5-TCF-Luciferase Assay in U2OS Cells (table columns: A=MAX FOLD Induction/DMSO CONTROL; B=fold induction @ 2.0 uM; C=fold induction @ 20.0 uM)
# Format: cell-based, Human
# Settings: Homo sapiens, U2OS; 2.0 uM compound
# Description: Biological Evaluation—Functional Dkk1-LRP5-TCF-Luciferase Assay in U2OS Cells
# U2OS Human Bone derived cells (Osteosarcoma) are grown in McCoy's 5A Medium (Modified), with L-glutamine (GIBCO Cat No. 16600-082)+1% Pen-Strep+5% FBS) plated at 1×10^7 cells/T175 cm flask. The next day, the cells are co-transfected overnight with the following plasmids: (a) Test reporter (16×TCF-TK-FireFly-Luci), (b) Internal Control Reporter (TK-Renilla-Luci), (c) Wnt3a and (d) Dkk1. GIBCO's Lipofectamine 2000 and OptiMEM were used for the transfection. After a minimum of 4 hr of transfection at 37° C., the plasmid-transfected cells are trypsinized, counted, and suspended in freezing medium (95% FBS+5% DMSO). The reporter cells are frozen at 1×10^7/ml concentrations, aliquoted into 0.5 ml or 2.5 ml/tube and stored at −70° C.
# The following day, test compounds are added under HTS setup by Plate Track into 384 well plates (white, TC treated, Falcon plate) such that the final concentration of the compounds in 20 μL/well cell will be 5 μg/ml (final concentration of DMSO=0.25% and final compound concentration=20 μM). Vials of frozen reporter cells are thawed by warming the vial in a 37° C. water bath for 60-120 seconds with some shaking until the cells formed a suspension. The thawed cells are transferred into a cold 50 ml (or larger) tube and mixed well by gentle pipetting. The appropriate amount of cold Phenol Red Free RPMI medium-1640 (GIBCO, Cat # 11835-030) with L-glutamine is added, both with ˜5% FBS (GIBCO-BRL, Cat. # 16000-044), so that 20 μl of the final cell suspension will contain ˜5,000 cells. The cell dilution is done such that the final concentration of FBS was ˜5%. Diluted cells (20 μl) are added into each well in a 384 well plate. The plate is incubated at 37° C. under 5% CO2 for ˜20 h. Bright-Glo substrate, 2.5 μl/well is added, and the Fire Fly Luciferase is measured using VLUX (60 second exposure) immediately after the substrate was added. Test compounds are dissolved in DMSO (100%) and added to specified wells. Raw luciferase signal data obtained as relative luminescence units (RLUs) for the test compounds are normalized to the signal of the mean of the sample reporter cell plate with DMSO.
# Active compounds have TCF-luciferase ratios of 2.5 fold or greater over DMSO. All compounds show a signal increase of at least 10% compared to a signal with only DMSO added.
# A=MAX FOLD Induction/DMSO CONTROL
# B=TCF ACTIVITY/DMSO CONTROL Fold induction @ 2.0 uM C=TCF ACTIVITY/DMSO CONTROL Fold induction @ 20.0 uM
row,SMILES,fold induction at 2 µM
1,"Brc1ccccc1-c1nc2c(-c3ccc4ccccc4c3)ccnc2n1C1CCNCC1 [2-(2-bromophenyl)-7-(2-naphthyl)-3-piperidin-4-yl-3H-imidazo[4,5-b]pyridine]",1.6
2,"Cc1cn(-c2ccccc2)c(Cl)c1-c1nc2c(-c3ccc4ccccc4c3)ccnc2n1C1CCNCC1 [2-(2-chloro-4-methyl-1-phenyl-1H-pyrrol-3-yl)-7-(2-naphthyl)-3-piperidin-4-yl-3H-imidazo[4,5-b]pyridine]",1.48
3,"Clc1ccccc1-c1nc2c(-c3ccc4ccccc4c3)ccnc2n1C1CCNCC1 [2-(2-chlorophenyl)-7-(2-naphthyl)-3-piperidin-4-yl-3H-imidazo[4,5-b]pyridine]",1.36
4,"Fc1ccccc1-c1nc2cc(-c3ccc4ccccc4c3)cnc2n1C1CCNCC1 [2-(2-fluorophenyl)-6-(2-naphthyl)-3-piperidin-4-yl-3H-imidazo[4,5-b]pyridine]",1.29
5,"Fc1ccccc1-c1nc2c(-c3ccc4ccccc4c3)ccnc2n1C1CCNCC1 [2-(2-fluorophenyl)-7-(2-naphthyl)-3-piperidin-4-yl-3H-imidazo[4,5-b]pyridine]",1.29
6,"c1coc(-c2nc3cc(-c4ccc5ccccc5c4)cnc3n2C2CCNCC2)c1 [2-(2-furyl)-6-(2-naphthyl)-3-piperidin-4-yl-3H-imidazo[4,5-b]pyridine]",1.27
7,"c1coc(-c2nc3c(-c4ccc5ccccc5c4)ccnc3n2C2CCNCC2)c1 [2-(2-furyl)-7-(2-naphthyl)-3-piperidin-4-yl-3H-imidazo[4,5-b]pyridine]",1.82
8,"COc1ccc2ccccc2c1-c1nc2c(-c3ccc4ccccc4c3)ccnc2n1C1CCNCC1 [2-(2-methoxy-1-naphthyl)-7-(2-naphthyl)-3-piperidin-4-yl-3H-imidazo[4,5-b]pyridine]",1.17
9,"COc1ccccc1-c1nc2cc(-c3ccc4ccccc4c3)cnc2n1C1CCNCC1 [2-(2-methoxyphenyl)-6-(2-naphthyl)-3-piperidin-4-yl-3H-imidazo[4,5-b]pyridine]",1.37
10,"COc1ccccc1-c1nc2c(-c3ccc4ccccc4c3)ccnc2n1C1CCNCC1 [2-(2-methoxyphenyl)-7-(2-naphthyl)-3-piperidin-4-yl-3H-imidazo[4,5-b]pyridine]",1.99
11,"COc1ncccc1-c1nc2c(-c3ccc4ccccc4c3)ccnc2n1C1CCNCC1 [2-(2-methoxypyridin-3-yl)-7-(2-naphthyl)-3-piperidin-4-yl-3H-imidazo[4,5-b]pyridine]",1.5
12,"Cc1nc(-c2nc3c(-c4ccc5ccccc5c4)ccnc3n2C2CCNCC2)c[nH]1 [2-(2-methyl-1H-imidazol-4-yl)-7-(2-naphthyl)-3-piperidin-4-yl-3H-imidazo[4,5-b]pyridine]",1.04
13,"Clc1cncc(Cl)c1-c1nc2c(-c3ccc4ccccc4c3)ccnc2n1C1CCNCC1 [2-(3,5-dichloropyridin-4-yl)-7-(2-naphthyl)-3-piperidin-4-yl-3H-imidazo[4,5-b]pyridine]",1.95
14,"Brc1cccc(-c2nc3c(-c4ccc5ccccc5c4)ccnc3n2C2CCNCC2)c1 [2-(3-bromophenyl)-7-(2-naphthyl)-3-piperidin-4-yl-3H-imidazo[4,5-b]pyridine]",1.52
15,"Clc1cccc(-c2nc3cc(-c4ccc5ccccc5c4)cnc3n2C2CCNCC2)c1 [2-(3-chlorophenyl)-6-(2-naphthyl)-3-piperidin-4-yl-3H-imidazo[4,5-b]pyridine]",0.98
16,"Clc1cccc(-c2nc3c(-c4ccc5ccccc5c4)ccnc3n2C2CCNCC2)c1 [2-(3-chlorophenyl)-7-(2-naphthyl)-3-piperidin-4-yl-3H-imidazo[4,5-b]pyridine]",1.5
17,"Fc1cccc(-c2nc3c(-c4ccc5ccccc5c4)ccnc3n2C2CCNCC2)c1 [2-(3-fluorophenyl)-7-(2-naphthyl)-3-piperidin-4-yl-3H-imidazo[4,5-b]pyridine]",1.55

row,SMILES,fold induction at 2 µM
1,"COc1cccc(-c2nc3cc(-c4ccc5ccccc5c4)cnc3n2C2CCNCC2)c1 [2-(3-methoxyphenyl)-6-(2-naphthyl)-3-piperidin-4-yl-3H-imidazo[4,5-b]pyridine]",0.97
2,"COc1cccc(-c2nc3c(-c4ccc5ccccc5c4)ccnc3n2C2CCNCC2)c1 [2-(3-methoxyphenyl)-7-(2-naphthyl)-3-piperidin-4-yl-3H-imidazo[4,5-b]pyridine]",1.25
3,"Cc1cccc(-c2nc3cc(-c4ccc5ccccc5c4)cnc3n2C2CCNCC2)c1 [2-(3-methylphenyl)-6-(2-naphthyl)-3-piperidin-4-yl-3H-imidazo[4,5-b]pyridine]",1.33
4,"Cc1cccc(-c2nc3c(-c4ccc5ccccc5c4)ccnc3n2C2CCNCC2)c1 [2-(3-methylphenyl)-7-(2-naphthyl)-3-piperidin-4-yl-3H-imidazo[4,5-b]pyridine]",1.91
5,"Cc1cc(-c2nc3c(-c4ccc5ccccc5c4)ccnc3n2C2CCNCC2)oc1C [2-(4,5-dimethyl-2-furyl)-7-(2-naphthyl)-3-piperidin-4-yl-3H-imidazo[4,5-b]pyridine]",1.54
6,"Brc1ccc(-c2nc3c(-c4ccc5ccccc5c4)ccnc3n2C2CCNCC2)cc1 [2-(4-bromophenyl)-7-(2-naphthyl)-3-piperidin-4-yl-3H-imidazo[4,5-b]pyridine]",1.23
7,"Clc1ccc(-c2nc3c(-c4ccc5ccccc5c4)ccnc3n2C2CCNCC2)cc1 [2-(4-chlorophenyl)-7-(2-naphthyl)-3-piperidin-4-yl-3H-imidazo[4,5-b]pyridine]",1.21
8,"CC(C)c1ccc(-c2nc3cc(-c4ccc5ccccc5c4)cnc3n2C2CCNCC2)cc1 [2-(4-isopropylphenyl)-6-(2-naphthyl)-3-piperidin-4-yl-3H-imidazo[4,5-b]pyridine]",1.14
9,"CC(C)c1ccc(-c2nc3c(-c4ccc5ccccc5c4)ccnc3n2C2CCNCC2)cc1 [2-(4-isopropylphenyl)-7-(2-naphthyl)-3-piperidin-4-yl-3H-imidazo[4,5-b]pyridine]",1.03
10,"Cc1nc[nH]c1-c1nc2c(-c3ccc4ccccc4c3)ccnc2n1C1CCNCC1 [2-(4-methyl-1H-imidazol-5-yl)-7-(2-naphthyl)-3-piperidin-4-yl-3H-imidazo[4,5-b]pyridine]",1.31
11,"Cc1ccc(-c2nc3cc(-c4ccc5ccccc5c4)cnc3n2C2CCNCC2)cc1 [2-(4-methylphenyl)-6-(2-naphthyl)-3-piperidin-4-yl-3H-imidazo[4,5-b]pyridine]",1
12,"Cc1ccc(-c2nc3c(-c4ccc5ccccc5c4)ccnc3n2C2CCNCC2)cc1 [2-(4-methylphenyl)-7-(2-naphthyl)-3-piperidin-4-yl-3H-imidazo[4,5-b]pyridine]",1.9
13,"O=[N+]([O-])c1cc(-c2nc3cc(-c4ccc5ccccc5c4)cnc3n2C2CCNCC2)ccc1N1CCOCC1 [2-(4-morpholin-4-yl-3-nitrophenyl)-6-(2-naphthyl)-3-piperidin-4-yl-3H-imidazo[4,5-b]pyridine]",1.01
14,"O=[N+]([O-])c1cc(-c2nc3c(-c4ccc5ccccc5c4)ccnc3n2C2CCNCC2)ccc1N1CCOCC1 [2-(4-morpholin-4-yl-3-nitrophenyl)-7-(2-naphthyl)-3-piperidin-4-yl-3H-imidazo[4,5-b]pyridine]",1.44
15,"CC(C)(C)c1ccc(-c2nc3cc(-c4ccc5ccccc5c4)cnc3n2C2CCNCC2)cc1 [2-(4-tert-butylphenyl)-6-(2-naphthyl)-3-piperidin-4-yl-3H-imidazo[4,5-b]pyridine]",1.13
16,"CC(C)(C)c1ccc(-c2nc3c(-c4ccc5ccccc5c4)ccnc3n2C2CCNCC2)cc1 [2-(4-tert-butylphenyl)-7-(2-naphthyl)-3-piperidin-4-yl-3H-imidazo[4,5-b]pyridine]",1.88
17,"COc1ccc2[nH]cc(-c3nc4c(-c5ccc6ccccc6c5)ccnc4n3C3CCNCC3)c2c1 [2-(5-methoxy-1H-indol-3-yl)-7-(2-naphthyl)-3-piperidin-4-yl-3H-imidazo[4,5-b]pyridine]",1.2

# Same assay, conditions: Homo sapiens, U2OS; 20.0 uM compound
row,SMILES,fold induction at 20 µM
1,"c1coc(-c2nc3cc(-c4ccc5ccccc5c4)cnc3n2C2CCNCC2)c1 [2-(2-furyl)-6-(2-naphthyl)-3-piperidin-4-yl-3H-imidazo[4,5-b]pyridine]",0.01
2,"c1coc(-c2nc3c(-c4ccc5ccccc5c4)ccnc3n2C2CCNCC2)c1 [2-(2-furyl)-7-(2-naphthyl)-3-piperidin-4-yl-3H-imidazo[4,5-b]pyridine]",0.01
3,"COc1ccccc1-c1nc2cc(-c3ccc4ccccc4c3)cnc2n1C1CCNCC1 [2-(2-methoxyphenyl)-6-(2-naphthyl)-3-piperidin-4-yl-3H-imidazo[4,5-b]pyridine]",0.01
4,"Cc1nc(-c2nc3c(-c4ccc5ccccc5c4)ccnc3n2C2CCNCC2)c[nH]1 [2-(2-methyl-1H-imidazol-4-yl)-7-(2-naphthyl)-3-piperidin-4-yl-3H-imidazo[4,5-b]pyridine]",0.02
5,"Clc1cncc(Cl)c1-c1nc2c(-c3ccc4ccccc4c3)ccnc2n1C1CCNCC1 [2-(3,5-dichloropyridin-4-yl)-7-(2-naphthyl)-3-piperidin-4-yl-3H-imidazo[4,5-b]pyridine]",0.29
6,"O=[N+]([O-])c1cc(-c2nc3c(-c4ccc5ccccc5c4)ccnc3n2C2CCNCC2)ccc1N1CCOCC1 [2-(4-morpholin-4-yl-3-nitrophenyl)-7-(2-naphthyl)-3-piperidin-4-yl-3H-imidazo[4,5-b]pyridine]",0.06
